The source of these data is US12065430B2, “Indazole compound or salt thereof” (TAIHO PHARMACEUTICAL CO., LTD., priority 2018, dated 2024).

Sequence of G12C K-Ras4B (1-169) (P01116 other isoform, or with tags, fused parts or gaps G12C): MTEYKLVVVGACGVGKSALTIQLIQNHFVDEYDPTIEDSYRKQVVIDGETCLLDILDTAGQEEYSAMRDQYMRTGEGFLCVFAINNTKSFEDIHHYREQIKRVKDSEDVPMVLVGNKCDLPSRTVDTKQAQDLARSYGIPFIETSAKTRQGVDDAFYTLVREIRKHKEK

The experiment has as its target G12C K-Ras4B (1-169) (Homo sapiens (Human), UniProt P01116, G12C). As to the kind of experiment: Test of compounds on whether to bind to KRASG12C (LC-MS compound binding rate). The conditions noted are these: final compound concentration of 2 μM, 1 μM protein, 25° C. for 2 hours. A digest of the protocol: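 K-Ras4B (1-169) WT and G12C (1 μM each, mixed) in 1×TBS, 0.1 mM TCEP incubated with compound (final 2 μM) 2 h at 25° C; quenched with 0.2% formic acid. Intact-protein LC-MS (ESI+, deconvoluted); binding rate = adduct signal/(adduct + unbound signal), giving selectivity over WT.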
For the compound `C=CC(=O)N1CC(NC(=O)c2c(C)nc(CNc3n[nH]c4cc(Cl)c(C(C)(C)C)cc34)n2C(C)CC)C1` (stereo not drawn) [Example 20, N-(1-acryloylazetidin-3-yl)-1-(sec-butyl)-2-(((5-(tert-butyl)-6-chloro-1H-indazol-3-yl)amino)methyl)-4-methyl-1H-imidazole-5-carboxamide], the “binding rate for G12C K-Ras4B (1-169)” value was “A (a binding rate of 80% or more is rated “A,”)”.

`C=CC(=O)N1C[C@@H](C)[C@@H](NC(=O)c2c(F)nc(CNc3n[nH]c4cc(Cl)c(C(C)(C)C)cc34)n2C)C1` [Example 74, N-((3R,4R)-1-acryloyl-4-methylpyrrolidin-3-yl)-2-(((5-(tert-butyl)-6-chloro-1H-indazol-3-yl)amino)methyl)-4-fluoro-1-methyl-1H-imidazole-5-carboxamide]: the “binding rate for G12C K-Ras4B (1-169)” value is “A (a binding rate of 80% or more is rated “A,”)”.

Regarding `C=CC(=O)N1CC(NC(=O)c2cnc(CNc3n[nH]c4cc(Cl)c(Br)cc34)n2C)C1` [Reference Example 1, N-(1-acryloylazetidin-3-yl)-2-(((5-bromo-6-chloro-1H-indazol-3-yl)amino)methyl)-1-methyl-1H-imidazole-5-carboxamide, reference compound], the “binding rate for G12C K-Ras4B (1-169)” value was “E (a binding rate of less than 20% is rated “E.”)”.

On to `C=CC(=O)N1CC(NC(=O)c2c(Cl)nc(CNc3n[nH]c4cc(Cl)c(C(C)(C)C)cc34)n2CC(C)C)C1` [Example 89, N-(1-acryloylazetidin-3-yl)-2-(((5-(tert-butyl)-6-chloro-1H-indazol-3-yl)amino)methyl)-4-chloro-1-isobutyl-1H-imidazole-5-carboxamide], for which the “binding rate for G12C K-Ras4B (1-169)” value is “A (a binding rate of 80% or more is rated “A,”)”.

In the case of `C=CC(=O)N1C[C@H](NC(=O)c2c(C)nc(CNc3n[nH]c4cc(Cl)c(C(C)(C)C)cc34)n2C)[C@@H](C)C1` [Example 60, N-((3R,4S)-1-acryloyl-4-methylpyrrolidin-3-yl)-2-(((5-(tert-butyl)-6-chloro-1H-indazol-3-yl)amino)methyl)-1,4-dimethyl-1H-imidazole-5-carboxamide], the “binding rate for G12C K-Ras4B (1-169)” value is “C (a binding rate of 40% or more and less than 60% is rated “C,”)”.

As for `C=CC(=O)N1CCC(NC(=O)c2c(C)nc(CNc3n[nH]c4cc(Cl)c(C(C)(C)C)cc34)n2C)C1` (stereo not drawn) [Example 48, N-(1-acryloylpyrrolidin-3-yl)-2-(((5-(tert-butyl)-6-chloro-1H-indazol-3-yl)amino)methyl)-1,4-dimethyl-1H-imidazole-5-carboxamide], the “binding rate for G12C K-Ras4B (1-169)” value was “B (a binding rate of 60% or more and less than 80% is rated “B,”)”.

Take `C=CC(=O)N1C[C@H](NC(=O)c2c(C)nc(CNc3n[nH]c4cc(Cl)c(C(C)(C)C)cc34)n2C)[C@@H](OC)C1` [Example 63, N-((3S,4S)-1-acryloyl-4-methoxypyrrolidin-3-yl)-2-(((5-(tert-butyl)-6-chloro-1H-indazol-3-yl)amino)methyl)-1,4-dimethyl-1H-imidazole-5-carboxamide]: the “binding rate for G12C K-Ras4B (1-169)” value is “B (a binding rate of 60% or more and less than 80% is rated “B,”)”.

As to `C=CC(=O)N1C[C@@H](CO)[C@@H](NC(=O)c2c(C)nc(CNc3n[nH]c4cc(Cl)c(C(C)(C)C)cc34)n2C)C1` [Example 58, N-((3R,4R)-1-acryloyl-4-(hydroxymethyl)pyrrolidin-3-yl)-2-(((5-(tert-butyl)-6-chloro-1H-indazol-3-yl)amino)methyl)-1,4-dimethyl-1H-imidazole-5-carboxamide], the “binding rate for G12C K-Ras4B (1-169)” value was “B (a binding rate of 60% or more and less than 80% is rated “B,”)”.

For `COC/C=C/C(=O)N1CC(NC(=O)c2c(C)nc(CNc3n[nH]c4cc(Cl)c(C(C)(C)C)cc34)n2C(C)C)C1` [Example 85, (E)-2-(((5-(tert-butyl)-6-chloro-1H-indazol-3-yl)amino)methyl)-1-isopropyl-N-(1-(4-methoxybut-2-enoyl)azetidin-3-yl)-4-methyl-1H-imidazole-5-carboxamide], the “binding rate for G12C K-Ras4B (1-169)” value was “C (a binding rate of 40% or more and less than 60% is rated “C,”)”.
